Reference: patent US20240101528A1, “SUBSTITUTED PYRAZOLO PIPERIDINE CARBOXYLIC ACIDS” (BAYER AKTIENGESELLSCHAFT, priority 2020, published 2024)
Where a name gives a salt, the structure may show the parent alone.

Molecular target: T1, recombinant guanylate cyclase reporter cell line (Rattus norvegicus, UniProt P20595)
T1 construct: expressed in transfected cells
T1 sequence (P20595 1-619): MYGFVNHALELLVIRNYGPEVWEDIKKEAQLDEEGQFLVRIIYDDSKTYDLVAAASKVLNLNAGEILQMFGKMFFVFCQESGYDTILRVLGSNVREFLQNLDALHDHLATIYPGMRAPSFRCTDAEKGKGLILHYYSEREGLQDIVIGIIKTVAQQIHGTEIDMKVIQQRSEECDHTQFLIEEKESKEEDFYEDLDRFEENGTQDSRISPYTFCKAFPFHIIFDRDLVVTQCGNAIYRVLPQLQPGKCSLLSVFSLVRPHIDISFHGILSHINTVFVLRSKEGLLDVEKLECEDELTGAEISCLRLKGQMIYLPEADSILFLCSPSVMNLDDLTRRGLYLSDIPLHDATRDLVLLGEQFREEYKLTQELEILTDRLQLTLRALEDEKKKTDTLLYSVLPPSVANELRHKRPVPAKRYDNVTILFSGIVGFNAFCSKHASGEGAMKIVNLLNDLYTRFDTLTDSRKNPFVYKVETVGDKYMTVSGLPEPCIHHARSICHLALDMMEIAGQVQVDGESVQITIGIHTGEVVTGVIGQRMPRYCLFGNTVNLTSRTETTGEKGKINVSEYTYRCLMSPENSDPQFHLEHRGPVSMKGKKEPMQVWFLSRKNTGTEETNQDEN
T1 sequence (P19686 1-690 partner): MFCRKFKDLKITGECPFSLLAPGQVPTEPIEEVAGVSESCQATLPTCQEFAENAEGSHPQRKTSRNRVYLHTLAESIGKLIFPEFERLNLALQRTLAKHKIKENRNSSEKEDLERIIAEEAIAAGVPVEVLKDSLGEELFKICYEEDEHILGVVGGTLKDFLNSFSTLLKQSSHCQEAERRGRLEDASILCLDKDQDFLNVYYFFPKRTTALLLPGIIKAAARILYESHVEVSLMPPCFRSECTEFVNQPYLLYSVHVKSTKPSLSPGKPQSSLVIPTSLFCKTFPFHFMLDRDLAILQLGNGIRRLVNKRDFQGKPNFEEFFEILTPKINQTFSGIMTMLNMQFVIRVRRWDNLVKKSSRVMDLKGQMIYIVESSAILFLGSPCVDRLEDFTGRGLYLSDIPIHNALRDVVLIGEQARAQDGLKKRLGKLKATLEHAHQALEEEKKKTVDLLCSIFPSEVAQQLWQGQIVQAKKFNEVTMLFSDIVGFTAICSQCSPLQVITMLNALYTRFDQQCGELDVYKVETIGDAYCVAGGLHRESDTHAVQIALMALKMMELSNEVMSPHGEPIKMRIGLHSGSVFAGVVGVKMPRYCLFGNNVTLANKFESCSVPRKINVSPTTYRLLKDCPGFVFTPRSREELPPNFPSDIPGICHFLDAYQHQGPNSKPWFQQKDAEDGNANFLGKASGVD
Assay: Effect on a recombinant guanylate cyclase reporter cell line
Format: cell-based
Settings: for EC50: half maximal effective concentration; for MEC: minimum effective concentration
Description: B-1. Effect on a Recombinant Guanylate Cyclase Reporter Cell Line
The cellular activity of the compounds according to the invention was determined using a recombinant guanylate cyclase reporter cell line, as described in F. Wunder et al., Anal. Biochem. 339, 104-112 (2005).

Row | SMILES | EC50 | MEC
1 | O=C(O)c1cnn(C2CCCN(c3cc(Cl)ccc3-c3ccc(N4CCN(CC5CCC5)CC4)cc3)C2)c1C(F)F (single isomer, unassigned; enantiomer 2) [Example 14, 1-[1-{4-Chloro-4′-[4-(cyclobutylmethyl)piperazin-1-yl][biphenyl]-2-yl}piperidin-3-yl]-5-(difluoromethyl)-1H-pyrazole-4-carboxylic acid hydrochloride (Enantiomer 2)] | 13.2 nM | 1.0 nM
2 | N#CCCN1CCN(c2ccc(-c3ccc(Cl)cc3N3CCCC(n4ncc(C(=O)O)c4C(F)F)C3)cc2)CC1 (single isomer, unassigned; enantiomer 2) [Example 46, 1-(1-{4-Chloro-4′-[4-(2-cyanoethyl)piperazin-1-yl][biphenyl]-2-yl}piperidin-3-yl)-5-(difluoromethyl)-1H-pyrazole-4-carboxylic acid (Enantiomer 2)] | 1.7 nM | 0.3 nM
3 | CC(C)N1CCN(c2ccc(-c3ccc(Cl)cc3N3CCCC(n4ncc(C(=O)O)c4C(F)F)C3)cc2)CC1 (single isomer, unassigned; enantiomer 2) [Example 6, 1-{1-[4-Chloro-4′-(4-isopropylpiperazin-1-yl)[biphenyl]-2-yl]piperidin-3-yl}-5-(difluoromethyl)-1H-pyrazole-4-carboxylic acid (Enantiomer 2)] | 33.5 nM | 3.0 nM
4 | O=C(O)c1cnn(C2CCCN(c3cc(Cl)ccc3-c3ccc(N4CCN(C5CC5)CC4)cc3)C2)c1C(F)F (single isomer, unassigned; enantiomer 1) [Example 8, 1-{1-[4-Chloro-4′-(4-cyclopropylpiperazin-1-yl)[biphenyl]-2-yl]piperidin-3-yl}-5-(difluoromethyl)-1H-pyrazole-4-carboxylic acid hydrochloride (Enantiomer 1)] | 24.5 nM | 3.0 nM
5 | O=C(O)c1cnn(C2CCCN(c3cc(Cl)ccc3-c3ccc(N4CCN(CC5CC5(F)F)CC4)cc3)C2)c1C(F)F (single isomer, unassigned; diastereomer 1) [Example 28, 1-{1-[4-Chloro-4′-(4-{[2,2-difluorocyclopropyl]methyl}piperazin-1-yl)[biphenyl]-2-yl]piperidin-3-yl}-5-(difluoromethyl)-1H-pyrazole-4-carboxylic acid hydrochloride (Diastereomer 1)] | 0.8 nM | 0.3 nM
6 | NC(=O)CCN1CCN(c2ccc(-c3ccc(Cl)cc3N3CCCC(n4ncc(C(=O)O)c4C(F)F)C3)cc2)CC1 (single isomer, unassigned; enantiomer 2) [Example 47, 1-(1-{4′-[4-(3-Amino-3-oxopropyl)piperazin-1-yl]-4-chloro[biphenyl]-2-yl}piperidin-3-yl)-5-(difluoromethyl)-1H-pyrazole-4-carboxylic acid (Enantiomer 2)] | 18 nM | 3.0 nM
7 | CN1CCN(c2ccc(-c3ccc(Cl)cc3N3CCCC(n4ncc(C(=O)O)c4C(F)F)C3)cc2)CC1 (single isomer, unassigned; enantiomer 1) [Example 1, 1-{1-[4-Chloro-4′-(4-methylpiperazin-1-yl)[biphenyl]-2-yl]piperidin-3-yl}-5-(difluoromethyl)-1H-pyrazole-4-carboxylic acid hydrochloride (Enantiomer 1)] | 96.5 nM | 10.0 nM
8 | O=C(O)c1cnn(C2CCCN(c3cc(Cl)ccc3-c3ccc(N4CCN(CC5CC5F)CC4)cc3)C2)c1C(F)F (mixture of isomers) [Example 32, 1-[1-[5-chloro-2-[4-[4-[(trans-2-fluorocyclopropyl)methyl]piperazin-1-yl]phenyl]phenyl]-3-piperidyl]-5-(difluoromethyl)pyrazole-4-carboxylic acid hydrochloride (Diastereoisomeric mixture 2)] | 2.7 nM | 0.3 nM
9 | O=C(O)c1cnn(C2CCCN(c3cc(Cl)ccc3-c3ccc(N4CCN(C(=O)C5CC5)CC4)cc3)C2)c1C(F)F (single isomer, unassigned; enantiomer 2) [Example 50, 1-(1-{4-Chloro-4′-[4-(3-cyclopropylcarbonyl)piperazin-1-yl][biphenyl]-2-yl}piperidin-3-yl)-5-(difluoromethyl)-1H-pyrazole-4-carboxylic acid (Enantiomer 2)] | 1.9 nM | 0.3 nM
10 | CC(C)CN1CCN(c2ccc(-c3ccc(Cl)cc3N3CC(n4ncc(C(=O)O)c4C(F)F)CC(F)(F)C3)cc2)CC1 (single isomer, unassigned; enantiomer 1) [Example 54, 1-{1-[4-Chloro-4′-(4-isobutylpiperazin-1-yl)[biphenyl]-2-yl]-5,5-difluoropiperidin-3-yl}-5-(difluoromethyl)-1H-pyrazole-4-carboxylic acid hydrochloride (Enantiomer 1)] | 8.4 nM | 3.0 nM
11 | O=C(O)c1cnn(C2CCCN(c3cc(Cl)ccc3-c3ccc(N4CCN(C(=O)[C@H]5C[C@H]5F)CC4)cc3)C2)c1C(F)F (single isomer, unassigned; stereoisomer 2) [Example 35] | 11.3 nM | 2.0 nM
12 | CC(C)(C)CN1CCN(c2ccc(-c3ccc(Cl)cc3N3CCCC(n4ncc(C(=O)O)c4C(F)F)C3)cc2)CC1 (single isomer, unassigned; enantiomer 2) [Example 13, 1-[(1-{4-Chloro-4′-[4-(2,2-dimethylpropyl)piperazin-1-yl][biphenyl]-2-yl}piperidin-3-yl]-5-(difluoromethyl)-1H-pyrazole-4-carboxylic acid hydrochloride (Enantiomer 2)] | 89 nM | 3.0 nM

The next lines start with the values.

Row | EC50 | MEC | SMILES
13 | 68 nM | 30.0 nM | CC(=O)N1CCN(c2ccc(-c3ccc(Cl)cc3N3CCCC(n4ncc(C(=O)O)c4C(F)F)C3)cn2)CC1 (single isomer, unassigned; enantiomer 2) [Example 68, 1-(1-{2-[6-(4-Acetylpiperazin-1-yl)pyridin-3-yl]-5-chlorophenyl}piperidin-3-yl)-5-(difluoromethyl)-1H-pyrazole-4-carboxylic acid hydrochloride (Enantiomer 2)]
14 | 66 nM | 10.0 nM | CCN1CCN(c2ccc(-c3ccc(C(F)(F)F)cc3N3CCCC(n4ncc(C(=O)O)c4C(F)F)C3)cc2)CC1 (single isomer, unassigned; enantiomer 1) [Example 73, 5-(Difluoromethyl)-1-{1-[4′-(4-ethylpiperazin-1-yl)-4-(trifluoromethyl)[biphenyl]-2-yl]piperidin-3-yl}-1H-pyrazole-4-carboxylic acid hydrochloride (Enantiomer 1)]
15 | 21.5 nM | 3.0 nM | CC(C)CN1CCN(c2ncc(-c3ccc(Cl)cc3N3CCCC(n4ncc(C(=O)O)c4C(F)F)C3)cn2)CC1 (single isomer, unassigned; enantiomer 2) [Example 70, 1-(1-{5-Chloro-2-[2-(4-isobutylpiperazin-1-yl)pyrimidin-5-yl]phenyl}piperidin-3-yl)-5-(difluoromethyl)-1H-pyrazole-4-carboxylic acid hydrochloride (Enantiomer 2)]
16 | 45.5 nM | 30.0 nM | Cc1cc(N2CCN(CC(F)(F)F)CC2)ncc1-c1ccc(Cl)cc1N1CCCC(n2ncc(C(=O)O)c2C(F)F)C1 (single isomer, unassigned; enantiomer 2) [Example 69, 1-[1-(5-Chloro-2-{4-methyl-6-[4-(2,2,2-trifluoroethyl)piperazin-1-yl]pyridin-3-yl}phenyl)piperidin-3-yl]-5-(difluoromethyl)-1H-pyrazole-4-carboxylic acid hydrochloride (Enantiomer 2)]
17 | 79.5 nM | 10.0 nM | CCN1CCN(c2ccc(-c3ccc(C(F)(F)F)cc3N3CCCC(n4ncc(C(=O)O)c4C(F)F)C3)cc2)CC1 (single isomer, unassigned; enantiomer 2) [Example 74, 5-(Difluoromethyl)-1-{1-[4′-(4-ethylpiperazin-1-yl)-4-(trifluoromethyl)[biphenyl]-2-yl]piperidin-3-yl}-1H-pyrazole-4-carboxylic acid hydrochloride (Enantiomer 2)]
